US20240238426A1, “PROTEIN ACYLATION MODULATION BY HETEROBIFUNCTIONAL MOLECULES” (THE SCRIPPS RESEARCH INSTITUTE, priority 2021, published 2024)

Key:
[1] = target: T1, H3.3-FKBP12^F36V (Homo sapiens, UniProt P62942+Q09472, F37V); assay: Immunoblot analysis of H3.3-FKBP12^F36V acetylation in HeLa cells; assay type: cell-based
T1 construct: expressed in transfected cells
Description: Lentivirus Production and Transduction: Lentiviral production was performed using HEK293T cells, which were co-transfected with pMD2.G (Addgene, #12259), psPAX2 (Addgene, #12260), and AceTAG lentiviral plasmids using PEI (Polysciences Inc). Viral particles were collected 72 h after transfection and filtered through a […] membrane. A range of dilutions of the lentivirus in DMEM complete and 10 μg/mL polybrene were added to HeLa, H1299, or HeLa RelA KO cell lines. Transduced cells were selected with 1 μg/mL or 2 μg/mL puromycin.
Immunoblotting: Cells were harvested in cold DPBS by scraping and washed with cold DPBS twice. Cell pellets were resuspended in DPBS supplemented with 5 mM sodium butyrate, 20 mM Nicotinamide, and 1X Halt Protease Inhibitor Cocktail and lysed by sonication (15 ms on, 40 ms off, 15% amplitude, 1s total on x 3). Protein concentration was determined using DC Protein Assay (Bio-Rad) and absorbance read using a CLARIOstar plate reader following manufacturer's instructions. Samples with equal protein content were boiled in 4X SDS gel loading buffer for 10 min. Proteins were separated by 10%, 12.5%, or 15% SDS-polyacrylamide gel electrophoresis and transferred to PVDF membranes using Trans-Blot Turbo RTA Mini […] LF PVDF Transfer Kit (Bio-Rad). Membranes were incubated for 1 h at room temperature with blocking buffer, followed by incubating overnight at 4° C. with primary antibodies. After washing in TBST, the secondary antibodies were incubated with the membranes at room temperature for 1 h. The membranes were washed with TBST for three times and visualized on a Bio-Rad ChemiDoc MP Imaging System with Clarity Max Western ECL substrate (Bio-Rad) or SuperSignal West Femto Chemiluminescent substrate proprietary luminol and peroxide solution kit (Thermo Scientific Pierce).

[2] = target: T2, FKBP12^F36V (Homo sapiens, UniProt P62942, F37V); assay: AceTAG-1 target engagement: FKBP-p photo-crosslinking probe competition in HEK293T cells; assay type: cell-based; details: 0.5 μM FKBP-p probe, increasing concentrations of AceTAG-1, 30 min, FIG. 3E
T2 construct: expressed in transfected cells; host or cells: HEK293T (transient)
Description: AceTAG-1 Target Engagement: At 50%-70% confluency, HEK293t cells in 6-well plates were transfected with pLEX305-C-dTAG-H3.3. After 24 h, cells were co-treated for 30 min with 0.5 μM FKBP-p probe and increasing concentration of AceTAG-1 in serum-free DMEM media. Cells then underwent UV-photocrosslinking (365 nm) for 20 min at 4° C., harvested in cold DPBS by scraping and centrifugation, cell pellets were washed with cold DPBS two times and aspirated. Cells were then lysed in 400 μL DPBS buffer supplemented with 0.2% SDS (w/v) and 1X Halt protease inhibitor cocktail. Lysate was then normalized to 1.5 mg/mL. […] Proteins (25 μg total protein loaded per gel lane) were resolved using SDS-PAGE (10% acrylamide) and visualized by in-gel fluorescence on Bio-Rad ChemiDoc MP Imaging System. Gel fluorescence and imaging was processed using Image Lab (v 6.0.1) software. […] Chemiluminescence was recorded with Bio-Rad ChemiDoc MP Imaging System and processed using Image Lab (v 6.0.1) software.

T1 sequence (P62942 2-108 F37V limits assumed): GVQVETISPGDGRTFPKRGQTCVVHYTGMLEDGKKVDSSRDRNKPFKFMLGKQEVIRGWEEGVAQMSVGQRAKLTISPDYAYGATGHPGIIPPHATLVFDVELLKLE
T1 sequence (Q09472 2-2414 limits assumed, stated change not applied): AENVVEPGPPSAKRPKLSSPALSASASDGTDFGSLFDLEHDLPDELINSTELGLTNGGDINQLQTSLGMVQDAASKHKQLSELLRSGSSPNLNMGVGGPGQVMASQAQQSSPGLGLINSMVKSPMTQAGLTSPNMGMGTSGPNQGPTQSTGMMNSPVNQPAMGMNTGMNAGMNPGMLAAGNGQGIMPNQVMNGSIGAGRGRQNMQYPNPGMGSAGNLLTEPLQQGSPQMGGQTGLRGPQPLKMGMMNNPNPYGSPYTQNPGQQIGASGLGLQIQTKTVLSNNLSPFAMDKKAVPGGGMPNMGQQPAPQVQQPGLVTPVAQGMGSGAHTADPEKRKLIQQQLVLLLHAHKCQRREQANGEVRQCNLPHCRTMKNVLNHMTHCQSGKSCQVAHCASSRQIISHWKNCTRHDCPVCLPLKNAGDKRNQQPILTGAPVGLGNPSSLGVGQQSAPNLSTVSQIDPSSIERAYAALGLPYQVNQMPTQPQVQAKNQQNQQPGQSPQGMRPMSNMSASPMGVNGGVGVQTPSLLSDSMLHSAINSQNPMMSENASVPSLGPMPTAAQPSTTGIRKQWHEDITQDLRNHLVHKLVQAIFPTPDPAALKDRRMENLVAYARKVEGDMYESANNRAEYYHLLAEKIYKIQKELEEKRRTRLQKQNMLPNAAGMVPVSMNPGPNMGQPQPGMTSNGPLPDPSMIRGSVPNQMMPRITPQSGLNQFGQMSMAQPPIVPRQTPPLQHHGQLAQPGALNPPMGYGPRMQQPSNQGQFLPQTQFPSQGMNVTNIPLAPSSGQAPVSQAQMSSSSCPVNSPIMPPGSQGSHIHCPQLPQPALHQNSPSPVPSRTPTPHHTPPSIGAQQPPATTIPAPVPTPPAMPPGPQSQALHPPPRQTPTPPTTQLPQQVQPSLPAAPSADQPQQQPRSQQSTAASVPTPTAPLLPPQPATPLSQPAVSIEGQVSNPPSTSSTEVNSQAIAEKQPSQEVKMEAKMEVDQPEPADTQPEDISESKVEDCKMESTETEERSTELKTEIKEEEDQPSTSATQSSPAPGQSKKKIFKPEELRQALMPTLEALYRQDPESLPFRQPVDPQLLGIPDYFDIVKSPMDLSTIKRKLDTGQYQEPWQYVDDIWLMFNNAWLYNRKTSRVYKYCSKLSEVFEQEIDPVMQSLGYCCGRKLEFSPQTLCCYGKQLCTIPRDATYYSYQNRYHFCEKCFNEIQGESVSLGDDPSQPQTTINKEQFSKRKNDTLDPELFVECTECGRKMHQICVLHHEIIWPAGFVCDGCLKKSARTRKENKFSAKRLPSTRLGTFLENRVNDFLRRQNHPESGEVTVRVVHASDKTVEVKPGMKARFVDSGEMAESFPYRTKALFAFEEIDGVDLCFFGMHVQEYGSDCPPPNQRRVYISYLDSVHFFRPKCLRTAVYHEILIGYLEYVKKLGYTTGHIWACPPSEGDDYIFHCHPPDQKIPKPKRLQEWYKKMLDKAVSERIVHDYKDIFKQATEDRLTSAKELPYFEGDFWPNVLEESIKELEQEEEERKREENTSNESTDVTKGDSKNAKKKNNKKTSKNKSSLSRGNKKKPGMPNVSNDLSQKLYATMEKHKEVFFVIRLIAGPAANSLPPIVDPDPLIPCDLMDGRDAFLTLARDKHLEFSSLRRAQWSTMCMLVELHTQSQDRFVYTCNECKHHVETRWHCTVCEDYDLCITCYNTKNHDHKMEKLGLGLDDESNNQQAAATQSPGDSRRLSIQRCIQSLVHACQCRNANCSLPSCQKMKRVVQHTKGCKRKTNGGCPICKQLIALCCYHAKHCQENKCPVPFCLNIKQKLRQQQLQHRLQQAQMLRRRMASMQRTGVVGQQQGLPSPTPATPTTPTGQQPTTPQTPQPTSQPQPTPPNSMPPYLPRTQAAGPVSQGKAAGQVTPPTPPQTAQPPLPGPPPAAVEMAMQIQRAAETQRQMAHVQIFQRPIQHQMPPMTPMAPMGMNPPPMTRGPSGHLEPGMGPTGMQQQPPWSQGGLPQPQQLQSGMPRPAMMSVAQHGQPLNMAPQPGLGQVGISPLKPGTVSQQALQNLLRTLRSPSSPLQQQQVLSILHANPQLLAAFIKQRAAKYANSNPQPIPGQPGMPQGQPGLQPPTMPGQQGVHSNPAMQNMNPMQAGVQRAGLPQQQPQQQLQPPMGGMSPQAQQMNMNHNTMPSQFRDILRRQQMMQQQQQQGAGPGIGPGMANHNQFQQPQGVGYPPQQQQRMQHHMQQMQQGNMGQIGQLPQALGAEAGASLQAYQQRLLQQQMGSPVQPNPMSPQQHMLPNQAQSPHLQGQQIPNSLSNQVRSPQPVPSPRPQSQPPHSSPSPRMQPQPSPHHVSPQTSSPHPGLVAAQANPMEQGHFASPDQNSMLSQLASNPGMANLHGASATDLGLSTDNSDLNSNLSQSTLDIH
T2 sequence (P62942 2-108 F37V limits assumed): as the sequence (P62942 2-108 F37V limits assumed) above

CC[C@H](C(=O)N1CCCC[C@H]1C(=O)O[C@H](CCc1ccc(OC)c(OC)c1)c1cccc(OCC(=O)NCCOCCOCCC(=O)NCCOc2ccc(CCc3nc4cc(-c5c(C)noc5C)ccc4n3CCN3CCOCC3)cc2)c1)c1cc(OC)c(OC)c(OC)c1 [AceTAG-1, (R)-3-(3,4-dimethoxyphenyl)-1-(3-((15-(4-(2-(5-(3,5-dimethylisoxazol-4-yl)-1-(2-morpholinoethyl)-1H-benzo[d]imidazol-2-yl)ethyl)phenoxy)-2,12-dioxo-6,9-dioxa-3,13-diazapentadecyl)oxy)phenyl)propyl (S)-1-((S)-2-(3,4,5-trimethoxyphenyl)butanoyl)piperidine-2-carboxylate]
treatment time after which H3.3-FKBP12^F36V acetylation significantly increased ([1]; 625 nM AceTAG-1, FIG. 4E): 5 min
acetylation level at high concentration (hook effect) ([1]; 50 μM AceTAG-1): loss of acetylation level
K18 acetylation, comparison of analogs ([1]; FIG. 9B): modestly higher levels of acetylation relative to the other analogs
acetylation of H3.3 ([1]; HeLa cells, FIG. 8): significant acetylation of H3.3
H3.3 acetylation at lysine 18, 23, and 27 ([1]; increasing concentrations, 2 hr, FIG. 4B): dose-dependent increase
H3.3 acetylation at lysine 9, 14, or 79 ([1]; increasing concentrations, 2 hr, FIG. 4C): not lysine 9, 14, or 79
time for H3.3 K18 acetylation to reach near basal levels after compound removal ([1]; washout, FIG. 4F): ≤ 2 h
competition of FKBP-p probe binding to FKBP12^F36V [2]: efficiently competed
